Data published in patent US20230146795A1, “ENHANCEMENT OF ANTI-TUMOR ACTIVITY OF SHP2 INHIBITOR PYRIMIDINONE IN COMBINATION WITH NOVEL CANCER MEDICINES IN CANCERS” (TAIHO PHARMACEUTICAL CO., LTD., priority 2020, published 2023).

Assays:
Assay type in all cases: cell-based
MKN45 = assay: Anti-proliferation assay (CellTiter-Glo 2.0), combination index, MKN45
Description: (§1) Cell lines were obtained from ATCC or Health Science Research Resources Bank.
(§2) Each cell lines were collected by ordinary method, then suspended in indicated medium containing 10% fetal bovine serum in table 3. The number of cells seeded per well was set to 500 cells/20 μL. […] The concentration of each anti-cancer reagents set to 8 concentrations including 0 nM. After adding the medicine to the cells, the cells were further incubated at 37° C. for 3 days under 5% CO2. Cell survival rates were calculated by adding 20 μL of CellTiter-Glo(registered trademark) 2. 0 (Promega) solution to each well, incubating the cells at room temperature for 10 minutes, and then measuring the chemiluminescence intensity of each well using a plate reader (ARVO).
(§3) A combination index (CI) value at each combined concentration of the medicines was determined.

MV-4-11 = assay: Anti-proliferation assay (CellTiter-Glo 2.0), combination index, MV-4-11
Description: as §1
(§4) 384 well culture plate (781086, Greiner Bio-One International) was used for cell survival rate measurement assay. Each cell lines were collected by ordinary method, then suspended in indicated medium containing 10% fetal bovine serum in table 3. The number of cells seeded per well was set to 500 cells/20 μL. After incubation at 37° C. for 24 hours under 5% CO2, Compound 1 and additional compound having an antitumor effect or a vehicle (DMSO) was added to each well by using D300e Digital Dispenser (Tecan). The concentration of Compound 1 was set to 10 concentrations. The concentration of each anti-cancer reagents set to 8 concentrations including 0 nM. After adding the medicine to the cells, the cells were further incubated at 37° C. for 3 days under 5% CO2. Cell survival rates were calculated by adding 20 μL of CellTiter-Glo(registered trademark) 2. 0 (Promega) solution to each well, incubating the cells at room temperature for 10 minutes, and then measuring the chemiluminescence intensity of each well using a plate reader (ARVO).
as §3

RT4 = assay: Anti-proliferation assay (CellTiter-Glo 2.0), combination index, RT4
Description: as §1, §2, §3

NCI-H358 = assay: Anti-proliferation assay (CellTiter-Glo 2.0), combination index, NCI-H358
Description: as §1, §2, §3

RMG-I = assay: Anti-proliferation assay (CellTiter-Glo 2.0), combination index, RMG-I
Description: as §1, §4, §3

[1] = Compound 1 41.2 + combination drug 1110 nmol/L (1:27)
[2] = Compound 1 370 + combination drug 10000 nmol/L (1:27)
[3] = Compound 1 4.57 + combination drug 123 nmol/L (1:27)
[4] = Compound 1 13.7 + combination drug 370 nmol/L (1:27)
[5] = Compound 1 123 + combination drug 3330 nmol/L (1:27)
[6] = Compound 1 1.52 + combination drug 123 nmol/L (1:81)
[7] = Compound 1 4.57 + combination drug 370 nmol/L (1:81)
[8] = Compound 1 13.7 + combination drug 1110 nmol/L (1:81)
[9] = Compound 1 41.2 + combination drug 3330 nmol/L (1:81)
[10] = Compound 1 123 + combination drug 10000 nmol/L (1:81)
[11] = Compound 1:combination drug molar ratio 1:81
[12] = Compound 1 4.57 + combination drug 41.2 nmol/L (1:9)
[13] = Compound 1 13.7 + combination drug 123 nmol/L (1:9)
[14] = Compound 1 41.2 + combination drug 370 nmol/L (1:9)
[15] = Compound 1 123 + combination drug 1110 nmol/L (1:9)
[16] = Compound 1 370 + combination drug 3330 nmol/L (1:9)
[17] = Compound 1 1110 + combination drug 10000 nmol/L (1:9)
[18] = Compound 1 13.7 nmol/L + Palbociclib 1110 nmol/L, molar ratio 1:81
[19] = Compound 1 41.2 nmol/L + Palbociclib 3330 nmol/L, molar ratio 1:81
[20] = Compound 1 123 nmol/L + Palbociclib 10000 nmol/L, molar ratio 1:81
[21] = Compound 1 1.52 nmol/L + Palbociclib 123 nmol/L, molar ratio 1:81
[22] = Compound 1 41.2 nmol/L + Palbociclib 1110 nmol/L, molar ratio 1:27
[23] = Compound 1 123 nmol/L + Palbociclib 3330 nmol/L, molar ratio 1:27
[24] = Compound 1 370 nmol/L + Palbociclib 10000 nmol/L, molar ratio 1:27

`CCc1cc2c(cc1N1CCC(N3CCOCC3)CC1)C(C)(C)c1[nH]c3cc(C#N)ccc3c1C2=O` [Alectinib] was tested, and the CI (MKN45; [1]) was 0.905, the Fa (MKN45; [1]) was 0.4310 and the CI (MKN45; [2]) was 0.542. For the same compound, the Fa (MKN45; [2]) was 0.9801, the “Description (combinatory effect by CI)” value (MKN45; Compound 1:combination drug molar ratio 1:27) was “Synergy (0.3-0.7)” and the CI (MV-4-11; [3]) was 0.829. It also gave a Fa (MV-4-11; [3]) of 0.5762, a CI (MV-4-11; [4]) of 0.484 and a Fa (MV-4-11; [4]) of 0.8852. It also gave a CI (MV-4-11; [1]) of 0.609, a Fa (MV-4-11; [1]) of 0.9534 and a CI (MV-4-11; [5]) of 0.187. For the same compound, the Fa (MV-4-11; [5]) was 0.9967, the CI (MV-4-11; [2]) was 0.631 and the Fa (MV-4-11; [2]) was 0.9962.

`C#Cc1cccc(Nc2ncnc3cc(OCCOC)c(OCCOC)cc23)c1` [Erlotinib] gave a CI (MV-4-11; [6]) of 0.808, a Fa (MV-4-11; [6]) of 0.0915 and a CI (MV-4-11; [7]) of 0.880. For the same compound, the Fa (MV-4-11; [7]) was 0.2460, the CI (MV-4-11; [8]) was 0.610 and the Fa (MV-4-11; [8]) was 0.6556. For the same compound, the CI (MV-4-11; [9]) was 0.632, the Fa (MV-4-11; [9]) was 0.8799 and the CI (MV-4-11; [10]) was 0.962. For the same compound, the Fa (MV-4-11; [10]) was 0.9472, the “Description (combinatory effect by CI)” value (MV-4-11; [11]) was “Synergy (0.3-0.7)” and the CI (RT4; [7]) was 0.421. For the same compound, the Fa (RT4; [7]) was 0.2843, the CI (RT4; [8]) was 0.464 and the Fa (RT4; [8]) was 0.4079. The CI (RT4; [9]) was 0.441, the Fa (RT4; [9]) was 0.5677 and the CI (RT4; [10]) was 0.308. The Fa (RT4; [10]) was 0.7514, the “Description (combinatory effect by CI)” value (RT4; [11]) was “Synergy (0.3-0.7)” and the CI (NCI-H358; [12]) was 0.617. It also gave a Fa (NCI-H358; [12]) of 0.1600, a CI (NCI-H358; [13]) of 0.145 and a Fa (NCI-H358; [13]) of 0.3804. For the same compound, the CI (NCI-H358; [14]) was 0.102, the Fa (NCI-H358; [14]) was 0.5542 and the CI (NCI-H358; [15]) was 0.206. It also gave a Fa (NCI-H358; [15]) of 0.6026, a CI (NCI-H358; [16]) of 0.256 and a Fa (NCI-H358; [16]) of 0.7034. The CI (NCI-H358; [17]) was 0.225 and the Fa (NCI-H358; [17]) was 0.8178.

Compound `CC[C@H](Nc1ncnc2[nH]cnc12)c1nc2cccc(F)c2c(=O)n1-c1ccccc1` [Idelalisib] has a CI (RMG-I; [6]) of 0.778, a Fa (RMG-I; [6]) of 0.0902 and a CI (RMG-I; [8]) of 0.511. The Fa (RMG-I; [8]) was 0.2747, the CI (RMG-I; [9]) was 0.333 and the Fa (RMG-I; [9]) was 0.5012. For the same compound, the CI (RMG-I; [10]) was 0.570, the Fa (RMG-I; [10]) was 0.6059 and the “Description (combinatory effect by CI)” value (RMG-I; [11]) was “Synergy (0.3-0.7)”. It also gave a CI (MV-4-11; [6]) of 0.301, a Fa (MV-4-11; [6]) of 0.2988 and a CI (MV-4-11; [7]) of 0.600. It also gave a Fa (MV-4-11; [7]) of 0.3705, a CI (MV-4-11; [8]) of 0.330 and a Fa (MV-4-11; [8]) of 0.7136. For the same compound, the CI (MV-4-11; [9]) was 0.262, the Fa (MV-4-11; [9]) was 0.8924 and the CI (MV-4-11; [10]) was 0.273. The Fa (MV-4-11; [10]) was 0.9566.

In the case of `CC(=O)c1c(C)c2cnc(Nc3ccc(N4CCNCC4)cn3)nc2n(C2CCCC2)c1=O` [Palbociclib], the CI (RMG-I; [18]) is reported as 0.411, the Fa (RMG-I; [18]) is reported as 0.3192 and the CI (RMG-I; [19]) is reported as 0.271. The Fa (RMG-I; [19]) was 0.4189, the CI (RMG-I; [20]) was 0.225 and the Fa (RMG-I; [20]) was 0.5120. The CI (MV-4-11; [21]) was 0.827, the Fa (MV-4-11; [21]) was 0.1698 and the CI (MV-4-11; [18]) was 0.520. The Fa (MV-4-11; [18]) was 0.6523, the CI (MV-4-11; [19]) was 0.699 and the Fa (MV-4-11; [19]) was 0.7944. For the same compound, the CI (MV-4-11; [20]) was 0.565, the Fa (MV-4-11; [20]) was 0.9297 and the Description (MV-4-11; combination effect, Compound 1 + Palbociclib, molar ratio 1:81) was “Synergy (0.3-0.7)”. For the same compound, the CI (NCI-H358; [22]) was 0.774, the Fa (NCI-H358; [22]) was 0.1141 and the CI (NCI-H358; [23]) was 0.695. The Fa (NCI-H358; [23]) was 0.2564, the CI (NCI-H358; [24]) was 0.833 and the Fa (NCI-H358; [24]) was 0.4277.
